Experimental data as given in US20250223296A1, “HYDROXYMETHYL AZABICYCLO[2.2.1]HEPTANES AND MEDICAL USES THEREOF” (ATROGI AB, priority 2022, published 2025).

What was measured:
L6-myotubes [1] = test: Glucose uptake (3H-2-deoxyglucose) in differentiated L6-myotubes; format: cell-based; conditions: compound at 10 µM (1×10^−5 M) vs isoproterenol at 10 µM, read-out: Biological example 1: glucose uptake, activity compared to that of isoproterenol
Description: L6-myoblasts were grown in Dulbecco's Modified Eagle's Medium (DMEM) containing 1 g/L glucose supplemented with 10% fetal bovine serum, 2 mM L-Glutamine, 50 U/ml penicillin, 50 μg/mL streptomycin and 10 mM HEPES. Cells were plated at 1×10^5 cells per mL in 24-well plates. After reaching 90% confluence the cells were grown in medium containing 2% FBS for 7 days where upon cells differentiated into myotubes. Differentiated L6-myotubes were serum-starved overnight in medium containing 0.5% fatty-acid free BSA and stimulated with an agonist, with a final concentration of 1×10^−5 M. After 1 h 40 min the cells were washed with warm glucose free medium or PBS twice and another portion of agonist was added to the glucose free medium. After 20 min the cells were exposed to 50 nM ^3H-2-deoxyglucose for another 10 min before washed in ice cold glucose free medium or PBS three times and lysed in 400 μL/well 0.2 M NaOH for 1 h at 60° C. The cell lysate was mixed with 4 mL scintillation buffer (Emulsifier Safe, Perkin Elmer) and the radioactivity was detected in a β-counter (Tri-Carb 4810TR, Perkin Elmer). The activity for each compound is compared to that of isoproterenol.

L6-myotubes [2] = test: Measurement of intracellular cAMP levels in differentiated L6 cells; format: cell-based; conditions: Rattus norvegicus, L6, 0.25 h, compound at 10 µM (1×10^−5 M), 15 min, vs isoproterenol at 10 µM, read-out: Biological example 2: intracellular cAMP levels, activity compared to that of isoproterenol
Description: L6-myoblasts were grown in Dulbecco's Modified Eagle's Medium (DMEM) containing 1 g/L glucose supplemented with 10% fetal bovine serum, 2 mM L-Glutamine, 50 U/ml penicillin, 50 μg/mL streptomycin and 10 mM HEPES. Cells were plated at 1×10^5 cells per mL in 24-well plates. After reaching 90% confluence the cells were grown in medium containing 2% FBS for 7 days where upon cells differentiated into myotubes. Differentiated cells were serum-starved overnight and stimulated with an agonist, final concentration 1×10^−5 M, for 15 min in stimulation buffer (HBSS supplemented with 1% BSA, 5 mM HEPES and 1 mM IBMX, pH 7.4). The medium was aspirated and 100 μL of 95% EtOH was added to each well of the 24-well plate and cells were kept at −20° C. overnight. The EtOH was allowed to evaporate and 500 μL of lysis buffer (1% BSA, 5 mM HEPES and 0.3% Tween-20, pH 7.4) was added to each well. The plate was kept at −80° C. for 30 min and then at −20° C. until the day of detection when the samples were thawed. Intracellular cAMP levels were detected using an alpha screen CAMP kit (6760635D from Perkin Elmer). The activity for each compound is compared to that of isoproterenol.

Structure (SMILES): O[C@H](c1cccc(F)c1)C12CCC(COCc3ccc(Cl)cc3)(CC1)N2 [Example 1, (R)-(4-(((4-Chlorobenzyl)oxy)methyl)-7-azabicyclo[2.2.1]heptan-1-yl)(3-fluorophenyl)methanol]
- Emax at 10 µM (L6-myotubes [1]): > 75%
- Emax at 10 µM (L6-myotubes [2]): < 25%

Structure (SMILES): O[C@@H](c1cccc(F)c1)C12CCC(COCc3ccc(Cl)cc3)(CC1)N2 [Example 2, (S)-(4-(((4-Chlorobenzyl)oxy)methyl)-7-azabicyclo[2.2.1]heptan-1-yl)(3-fluorophenyl)methanol]
- Emax at 10 µM (L6-myotubes [1]): 50 to 75%
- Emax at 10 µM (L6-myotubes [2]): < 25%

Structure (SMILES): O[C@H](c1cccc(F)c1)C12CCC(COCc3ccc(F)cc3)(CC1)N2 [Example 3, (R)-(4-(((4-Fluorobenzyl)oxy)methyl)-7-azabicyclo[2.2.1]heptan-1-yl)(3-fluorophenyl)methanol]
- Emax at 10 µM (L6-myotubes [1]): > 75%
- Emax at 10 µM (L6-myotubes [2]): 25 to 50%

Structure (SMILES): O[C@@H](c1cccc(F)c1)C12CCC(COCc3ccc(F)cc3)(CC1)N2 [Example 4, (S)-(4-(((4-Fluorobenzyl)oxy)methyl)-7-azabicyclo[2.2.1]heptan-1-yl)(3-fluorophenyl)methanol]
- Emax at 10 µM (L6-myotubes [1]): 25 to 50%
- Emax at 10 µM (L6-myotubes [2]): < 25%

Structure (SMILES): O[C@H](c1cncc(F)c1)C12CCC(COCc3ccc(F)cc3)(CC1)N2 [Example 5, (R)-(4-(((4-Fluorobenzyl)oxy)methyl)-7-azabicyclo[2.2.1]heptan-1-yl)(5-fluoropyridin-3-yl)methanol]
- Emax at 10 µM (L6-myotubes [1]): > 75%
- Emax at 10 µM (L6-myotubes [2]): 25 to 50%

Structure (SMILES): O[C@@H](c1cncc(F)c1)C12CCC(COCc3ccc(F)cc3)(CC1)N2 [Example 6, (S)-(4-(((4-Fluorobenzyl)oxy)methyl)-7-azabicyclo[2.2.1]heptan-1-yl)(5-fluoropyridin-3-yl)methanol]
- Emax at 10 µM (L6-myotubes [1]): 50 to 75%
- Emax at 10 µM (L6-myotubes [2]): < 25%

Structure (SMILES): O[C@H](c1cccc(F)c1)C12CCC(Cc3ccccc3)(CC1)N2 [Example 7, (R)-(4-Benzyl-7-azabicyclo[2.2.1]heptan-1-yl)(3-fluorophenyl)methanol]
- Emax at 10 µM (L6-myotubes [1]): > 75%
- Emax at 10 µM (L6-myotubes [2]): 25 to 50%

Structure (SMILES): O[C@@H](c1cccc(F)c1)C12CCC(Cc3ccccc3)(CC1)N2 [Example 8, (S)-(4-Benzyl-7-azabicyclo[2.2.1]heptan-1-yl)(3-fluorophenyl)methanol]
- Emax at 10 µM (L6-myotubes [1]): 50 to 75%
- Emax at 10 µM (L6-myotubes [2]): < 25%

Structure (SMILES): COc1ccc(CC23CCC([C@H](O)c4cccc(F)c4)(CC2)N3)cc1 [Example 9, (R)-(3-Fluorophenyl)(4-(4-methoxybenzyl)-7-azabicyclo[2.2.1]heptan-1-yl)methanol]
- Emax at 10 µM (L6-myotubes [1]): > 75%
- Emax at 10 µM (L6-myotubes [2]): < 25%

Structure (SMILES): COc1ccc(CC23CCC([C@@H](O)c4cccc(F)c4)(CC2)N3)cc1 [Example 10, (S)-(3-Fluorophenyl)(4-(4-methoxybenzyl)-7-azabicyclo[2.2.1]heptan-1-yl)methanol]
- Emax at 10 µM (L6-myotubes [1]): 50 to 75%
- Emax at 10 µM (L6-myotubes [2]): < 25%

Structure (SMILES): O[C@H](c1cccc(F)c1)C12CCC(Cc3ccc(F)cc3)(CC1)N2 [Example 11, (R)-(4-(4-Fluorobenzyl)-7-azabicyclo[2.2.1]heptan-1-yl)-(3-fluoro-phenyl)methanol]
- Emax at 10 µM (L6-myotubes [1]): > 75%
- Emax at 10 µM (L6-myotubes [2]): < 25%

Structure (SMILES): O[C@@H](c1cccc(F)c1)C12CCC(Cc3ccc(F)cc3)(CC1)N2 [Example 12, (S)-(4-(4-Fluorobenzyl)-7-azabicyclo[2.2.1]heptan-1-yl)-(3-fluorophenyl)methanol]
- Emax at 10 µM (L6-myotubes [1]): 50 to 75%
- Emax at 10 µM (L6-myotubes [2]): < 25%

Structure (SMILES): CO[C@H]1CC[C@H](CCC23CCC([C@H](O)c4cccc(F)c4)(CC2)N3)CC1 [Example 13, (R)-(3-Fluorophenyl)(4-(2-(trans-4-methoxycyclohexyl)ethyl)-7-azabicyclo[2.2.1]heptan-1-yl)methanol]
- Emax at 10 µM (L6-myotubes [1]): > 75%
- Emax at 10 µM (L6-myotubes [2]): 50 to 75%

Structure (SMILES): CO[C@H]1CC[C@H](CCC23CCC([C@@H](O)c4cccc(F)c4)(CC2)N3)CC1 [Example 14, (S)-(3-Fluorophenyl)(4-(2-((trans)-4-methoxycyclohexyl)ethyl)-7-aza-bicyclo[2.2.1]heptan-1-yl)methanol]
- Emax at 10 µM (L6-myotubes [1]): 50 to 75%
- Emax at 10 µM (L6-myotubes [2]): < 25%

Structure (SMILES): O[C@H](c1cccc(F)c1)C12CCC(COCc3ccc(OC(F)(F)F)cc3)(CC1)N2 [Example 15, (R)-(3-Fluorophenyl)(4-(((4-(trifluoromethoxy)benzyl)oxy)methyl)-7-azabicyclo[2.2.1]heptan-1-yl)methanol]
- Emax at 10 µM (L6-myotubes [1]): < 25%
- Emax at 10 µM (L6-myotubes [2]): < 25%

Structure (SMILES): O[C@@H](c1cccc(F)c1)C12CCC(COCc3ccc(OC(F)(F)F)cc3)(CC1)N2 [Example 16]
- Emax at 10 µM (L6-myotubes [1]): < 25%
- Emax at 10 µM (L6-myotubes [2]): < 25%

Structure (SMILES): O[C@H](c1cncc(F)c1)C12CCC(COCc3ccc(OC(F)(F)F)cc3)(CC1)N2 [Example 17, (R)-(5-Fluoropyridin-3-yl)(4-(((4-(trifluoromethoxy)benzyl)oxy)-methyl)-7-azabicyclo[2.2.1]heptan-1-yl)methanol]
- Emax at 10 µM (L6-myotubes [1]): 50 to 75%
- Emax at 10 µM (L6-myotubes [2]): < 25%

Structure (SMILES): O[C@@H](c1cncc(F)c1)C12CCC(COCc3ccc(OC(F)(F)F)cc3)(CC1)N2 [Example 18, (S)-(5-Fluoropyridin-3-yl)(4-(((4-(trifluoromethoxy)benzyl)oxy)methyl)-7-azabicyclo[2.2.1]heptan-1-yl)methanol]
- Emax at 10 µM (L6-myotubes [1]): < 25%
- Emax at 10 µM (L6-myotubes [2]): < 25%

Structure (SMILES): O[C@H](c1cccc(F)c1)C12CCC(Cc3ccc(OC(F)(F)F)cc3)(CC1)N2 [Example 19, (R)-(3-Fluorophenyl)(4-(4-(trifluoromethoxy)benzyl)-7-azabicyclo-[2.2.1]heptan-1-yl)methanol]
- Emax at 10 µM (L6-myotubes [1]): < 25%
- Emax at 10 µM (L6-myotubes [2]): < 25%

Structure (SMILES): O[C@@H](c1cccc(F)c1)C12CCC(Cc3ccc(OC(F)(F)F)cc3)(CC1)N2 [Example 20, (S)-(3-Fluorophenyl)(4-(4-(trifluoromethoxy)benzyl)-7-azabicyclo-[2.2.1]heptan-1-yl)methanol]
- Emax at 10 µM (L6-myotubes [1]): < 25%
- Emax at 10 µM (L6-myotubes [2]): < 25%

Structure (SMILES): CS(=O)(=O)N(Cc1ccccc1)c1ccc(CC23CCC([C@H](O)c4cccc(F)c4)(CC2)N3)cc1 [Example 21]
- Emax at 10 µM (L6-myotubes [1]): 25 to 50%
- Emax at 10 µM (L6-myotubes [2]): < 25%

Structure (SMILES): CS(=O)(=O)N(Cc1ccccc1)c1ccc(CC23CCC([C@@H](O)c4cccc(F)c4)(CC2)N3)cc1 [Example 22, N-Benzyl-N-(4-((4-((S)-(3-fluorophenyl)(hydroxy)methyl)-7-aza-bicyclo[2.2.1]heptan-1-yl)methyl)phenyl)methanesulfonamide]
- Emax at 10 µM (L6-myotubes [1]): 25 to 50%
- Emax at 10 µM (L6-myotubes [2]): < 25%

Structure (SMILES): CS(=O)(=O)N(Cc1ccccc1)c1cccc(CC23CCC([C@H](O)c4cccc(F)c4)(CC2)N3)c1 [Example 23, N-Benzyl-N-(3-((4-((R)-(3-fluorophenyl)(hydroxy)methyl)-7-aza-bicyclo[2.2.1]heptan-1-yl)methyl)phenyl)methanesulfonamide]
- Emax at 10 µM (L6-myotubes [1]): 50 to 75%
- Emax at 10 µM (L6-myotubes [2]): < 25%

Structure (SMILES): CS(=O)(=O)N(Cc1ccccc1)c1cccc(CC23CCC([C@@H](O)c4cccc(F)c4)(CC2)N3)c1 [Example 24, N-Benzyl-N-(3-((4-((S)-(3-fluorophenyl)(hydroxy)methyl)-7-aza-bicyclo[2.2.1]heptan-1-yl)methyl)phenyl)methanesulfonamide]
- Emax at 10 µM (L6-myotubes [1]): 50 to 75%
- Emax at 10 µM (L6-myotubes [2]): < 25%

Structure (SMILES): CS(=O)(=O)Nc1ccc(CC23CCC([C@H](O)c4cccc(F)c4)(CC2)N3)cc1 [Example 25, N-(4-((4-((R)-(3-Fluorophenyl)(hydroxy)methyl)-7-azabicyclo[2.2.1]-heptan-1-yl)methyl)phenyl)methanesulfonamide]
- Emax at 10 µM (L6-myotubes [1]): 50 to 75%
- Emax at 10 µM (L6-myotubes [2]): < 25%

Structure (SMILES): CS(=O)(=O)Nc1ccc(CC23CCC([C@@H](O)c4cccc(F)c4)(CC2)N3)cc1 [Example 26, N-(4-((4-((S)-(3-Fluorophenyl)(hydroxy)methyl)-7-azabicyclo[2.2.1]-heptan-1-yl)methyl)phenyl)methanesulfonamide]
- Emax at 10 µM (L6-myotubes [1]): 50 to 75%
- Emax at 10 µM (L6-myotubes [2]): < 25%

Structure (SMILES): CS(=O)(=O)Nc1cccc(CC23CCC([C@H](O)c4cccc(F)c4)(CC2)N3)c1 [Example 27, N-(3-((4-((R)-(3-Fluorophenyl)(hydroxy)methyl)-7-azabicyclo-[2.2.1]heptan-1-yl)methyl)phenyl)methanesulfonamide]
- Emax at 10 µM (L6-myotubes [1]): 50 to 75%
- Emax at 10 µM (L6-myotubes [2]): < 25%

Structure (SMILES): CS(=O)(=O)Nc1cccc(CC23CCC([C@@H](O)c4cccc(F)c4)(CC2)N3)c1 [Example 28, N-(3-((4-((S)-(3-Fluorophenyl)(hydroxy)methyl)-7-azabicyclo[2.2.1]-heptan-1-yl)methyl)phenyl)methanesulfonamide]
- Emax at 10 µM (L6-myotubes [1]): 50 to 75%
- Emax at 10 µM (L6-myotubes [2]): < 25%
